Data taken from PubChem BioAssay (NCI).
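GI50 marks 50% less growth. Definition used: TGI = concentration required for complete inhibition of growth.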

Assays:
Assay in all cases: DTP human tumour cell line panel, 384-well format
NCI-H23 lung = tested on: NCI-H23 lung
IGROV1 ovarian = tested on: IGROV1 ovarian
SNB-19 CNS = tested on: SNB-19 CNS
SK-MEL-5 melanoma = tested on: SK-MEL-5 melanoma
SNB-75 CNS = tested on: SNB-75 CNS
CAKI-1 renal = tested on: CAKI-1 renal
SN12C renal = tested on: SN12C renal
NCI-H460 NSCLC = tested on: NCI-H460 NSCLC
SK-MEL-28 melanoma = tested on: SK-MEL-28 melanoma
NCI-H522 lung = tested on: NCI-H522 lung
HL-60(TB) leukemia = tested on: HL-60(TB) leukemia
HOP-62 NSCLC = tested on: HOP-62 NSCLC
MDA-MB-468 breast = tested on: MDA-MB-468 breast
HS 578T breast = tested on: HS 578T breast
K-562 leukemia = tested on: K-562 leukemia
RXF 393 renal = tested on: RXF 393 renal
SW-620 colon = tested on: SW-620 colon
UACC-257 melanoma = tested on: UACC-257 melanoma
MDA-MB-435 melanoma = tested on: MDA-MB-435 melanoma
RPMI-8226 leukemia = tested on: RPMI-8226 leukemia
TK-10 renal = tested on: TK-10 renal
LOX IMVI melanoma = tested on: LOX IMVI melanoma
A549 NSCLC = tested on: A549 NSCLC
HT29 colon = tested on: HT29 colon
MOLT-4 leukemia = tested on: MOLT-4 leukemia
SF-268 CNS = tested on: SF-268 CNS
M14 melanoma = tested on: M14 melanoma
NCI-H322M lung = tested on: NCI-H322M lung
NCI-H226 lung = tested on: NCI-H226 lung
EKVX NSCLC = tested on: EKVX NSCLC
DU-145 prostate = tested on: DU-145 prostate
OVCAR-4 ovarian = tested on: OVCAR-4 ovarian
HCC-2998 colon = tested on: HCC-2998 colon
HOP-92 NSCLC = tested on: HOP-92 NSCLC
COLO 205 colon = tested on: COLO 205 colon
CCRF-CEM leukemia = tested on: CCRF-CEM leukemia
BT-549 breast = tested on: BT-549 breast
SK-MEL-2 melanoma = tested on: SK-MEL-2 melanoma
OVCAR-8 ovarian = tested on: OVCAR-8 ovarian
A498 renal = tested on: A498 renal
786-0 renal = tested on: 786-0 renal
SK-OV-3 ovarian = tested on: SK-OV-3 ovarian
KM12 colon = tested on: KM12 colon
HCT-116 colon = tested on: HCT-116 colon
OVCAR-3 ovarian = tested on: OVCAR-3 ovarian
U251 glioblastoma = tested on: U251 glioblastoma
MCF7 breast = tested on: MCF7 breast
UACC-62 melanoma = tested on: UACC-62 melanoma
SF-539 CNS = tested on: SF-539 CNS
ACHN renal = tested on: ACHN renal
MALME-3M melanoma = tested on: MALME-3M melanoma
NCI/ADR-RES ovarian = tested on: NCI/ADR-RES ovarian
SF-295 CNS = tested on: SF-295 CNS
PC-3 prostate = tested on: PC-3 prostate
HCT-15 colon = tested on: HCT-15 colon

CN(C)CC(C)(CN(C)C)C(=O)/C=C/c1c(Cl)cccc1Cl
GI50 (NCI-H23 lung): 2.47 µM | TGI (NCI-H23 lung): 5.04 µM | GI50 (IGROV1 ovarian): 1.87 µM | TGI (IGROV1 ovarian): 3.36 µM | GI50 (SNB-19 CNS): 4.18 µM | TGI (SNB-19 CNS): 12.4 µM | GI50 (SK-MEL-5 melanoma): 1.39 µM | TGI (SK-MEL-5 melanoma): 2.98 µM | GI50 (SNB-75 CNS): 5.16 µM | TGI (SNB-75 CNS): 11.3 µM | GI50 (CAKI-1 renal): 1.81 µM | TGI (CAKI-1 renal): 3.23 µM | GI50 (SN12C renal): 1.88 µM | TGI (SN12C renal): 3.29 µM | GI50 (NCI-H460 NSCLC): 1.97 µM | TGI (NCI-H460 NSCLC): 3.59 µM | GI50 (SK-MEL-28 melanoma): 10 µM | TGI (SK-MEL-28 melanoma): 21.7 µM | GI50 (NCI-H522 lung): 1.71 µM | TGI (NCI-H522 lung): 3.09 µM | GI50 (HL-60(TB) leukemia): 1.01 µM | TGI (HL-60(TB) leukemia): 2.18 µM | GI50 (HOP-62 NSCLC): 2.32 µM | TGI (HOP-62 NSCLC): 3.96 µM | GI50 (MDA-MB-468 breast): 2.1 µM | TGI (MDA-MB-468 breast): 3.59 µM | GI50 (HS 578T breast): 2.17 µM | TGI (HS 578T breast): 4.24 µM | GI50 (K-562 leukemia): 4.98 µM | TGI (K-562 leukemia): 15.9 µM | GI50 (RXF 393 renal): 2.13 µM | TGI (RXF 393 renal): 3.59 µM | GI50 (SW-620 colon): 2.01 µM | TGI (SW-620 colon): 3.48 µM | GI50 (UACC-257 melanoma): 1.95 µM | TGI (UACC-257 melanoma): 3.81 µM | GI50 (MDA-MB-435 melanoma): 3.9 µM | TGI (MDA-MB-435 melanoma): 11.6 µM | GI50 (RPMI-8226 leukemia): 0.2 µM | TGI (RPMI-8226 leukemia): 0.346 µM | GI50 (TK-10 renal): 1.61 µM | TGI (TK-10 renal): 3.12 µM | GI50 (LOX IMVI melanoma): 1.67 µM | TGI (LOX IMVI melanoma): 3.15 µM | GI50 (A549 NSCLC): 3.72 µM | TGI (A549 NSCLC): 13.2 µM | GI50 (HT29 colon): 1.87 µM | TGI (HT29 colon): 3.41 µM | GI50 (MOLT-4 leukemia): 1.54 µM | TGI (MOLT-4 leukemia): 2.89 µM | GI50 (SF-268 CNS): 5.61 µM | TGI (SF-268 CNS): 15.8 µM | GI50 (M14 melanoma): 2.09 µM | TGI (M14 melanoma): 4 µM | GI50 (NCI-H322M lung): 3.86 µM | TGI (NCI-H322M lung): 12.3 µM | GI50 (NCI-H226 lung): 1.76 µM | TGI (NCI-H226 lung): 3.34 µM | GI50 (EKVX NSCLC): 4.28 µM | TGI (EKVX NSCLC): 14.1 µM | GI50 (DU-145 prostate): 5.18 µM | TGI (DU-145 prostate): 16 µM | GI50 (OVCAR-4 ovarian): 1.81 µM | TGI (OVCAR-4 ovarian): 3.21 µM | GI50 (HCC-2998 colon): 2.24 µM | TGI (HCC-2998 colon): 6.9 µM | GI50 (HOP-92 NSCLC): 2.17 µM | TGI (HOP-92 NSCLC): 3.65 µM | GI50 (COLO 205 colon): 2.17 µM | TGI (COLO 205 colon): 3.66 µM | GI50 (CCRF-CEM leukemia): 1.58 µM | TGI (CCRF-CEM leukemia): 2.96 µM | GI50 (BT-549 breast): 2.52 µM | TGI (BT-549 breast): 5.73 µM | GI50 (SK-MEL-2 melanoma): 2.07 µM | TGI (SK-MEL-2 melanoma): 3.54 µM | GI50 (OVCAR-8 ovarian): 1.95 µM | TGI (OVCAR-8 ovarian): 3.41 µM | GI50 (A498 renal): 2.29 µM | TGI (A498 renal): 4.6 µM | GI50 ([…]-0 renal): 1.79 µM | TGI (786-0 renal): 3.22 µM | GI50 (SK-OV-3 ovarian): 4.38 µM | TGI (SK-OV-3 ovarian): 15.4 µM | GI50 (KM12 colon): 1.22 µM | TGI (KM12 colon): 2.92 µM | GI50 (HCT-116 colon): 2.03 µM | TGI (HCT-116 colon): 3.53 µM | GI50 (OVCAR-3 ovarian): 1.91 µM | TGI (OVCAR-3 ovarian): 3.37 µM | GI50 (U251 glioblastoma): 2.12 µM | TGI (U251 glioblastoma): 3.74 µM | GI50 (MCF7 breast): 0.512 µM | TGI (MCF7 breast): 1.76 µM | GI50 (UACC-62 melanoma): 2.16 µM | TGI (UACC-62 melanoma): 4.2 µM | GI50 (SF-539 CNS): 1.9 µM | TGI (SF-539 CNS): 3.33 µM | GI50 (ACHN renal): 1.88 µM | TGI (ACHN renal): 3.31 µM | GI50 (MALME-3M melanoma): 2.16 µM | TGI (MALME-3M melanoma): 3.61 µM | GI50 (NCI/ADR-RES ovarian): 2.14 µM | TGI (NCI/ADR-RES ovarian): 3.82 µM | GI50 (SF-295 CNS): 11.4 µM | TGI (SF-295 CNS): 23.6 µM | GI50 (PC-3 prostate): 2.52 µM | TGI (PC-3 prostate): 5.2 µM | GI50 (HCT-15 colon): 1.86 µM | TGI (HCT-15 colon): 3.33 µM
